Drawing on ChEMBL document CHEMBL4028893, “Discovery and Optimization of Potent, Cell-Active Pyrazole-Based Inhibitors of Lactate Dehydrogenase (LDH)” (J Med Chem, 2017), this text covers inhibition and IC50 for 25 molecules.

SMILES strings stand for the structures. Activity calls are given as the source filed them. The rule behind the calls is not given here. Some results are limits rather than exact numbers.

In assay [1] the target is T1, L-lactate dehydrogenase (Homo sapiens, UniProt V9HWB9). The experiment in a line: Inhibition of LDH in human A673 cells assessed as reduction in lactate production preincubated for 2 hrs measured after 30 mins by high throughput fluorescence assay. Type of assay: cell-based.
Assay [2] concerns the target T1, L-lactate dehydrogenase. The experiment in a line: Inhibition of LDH in human MIAPaCa2 cells assessed as reduction in lactate production preincubated for 2 hrs measured after 30 mins by high throughput fluorescence assay. It counts as cell-based.
In assay [3] the target is T2, L-lactate dehydrogenase A chain (Homo sapiens, UniProt P00338).
Description: Inhibition of human liver LDHA using sodium pyruvate as substrate after 5 mins in presence of NAPDH and EDTA by diaphorase/resazurin based fluorescence assay
Assay [4] has as its target T2, L-lactate dehydrogenase A chain. The source holds these as a separate data set.
Description: Inhibition of human liver LDHA using sodium pyruvate as substrate after 5 mins in presence of NAPDH and in absence of EDTA by diaphorase/resazurin based fluorescence assay

For the molecule `O=C(O)c1csc(-n2nc(-c3ccc(F)cc3)cc2C(F)(F)F)n1`, the inhibition entry on L-lactate dehydrogenase [1] and at L-lactate dehydrogenase [2] was “inactive” throughout. Consider `CC(C)c1cc(-c2ccccc2)nn1-c1nc(C(=O)O)cs1`, for which the inhibition entry on L-lactate dehydrogenase [1] and on L-lactate dehydrogenase [2] was “inactive” each time. Also, the IC50 in assay [3] was more than 57 µM; in assay [4] it was more than 57000 nM. The molecule `CCOC(=O)c1csc(-n2nc(-c3cccc(-c4ccccc4)c3)c(Cc3ccc(S(N)(=O)=O)cc3)c2C(F)(F)F)n1` gave an IC50 in assay [3] of more than 57 µM. For the molecule `O=C(O)c1csc(-n2nc(-c3ccc(Cl)cc3)cc2C(F)(F)F)n1`, the inhibition entry at L-lactate dehydrogenase [1] and on L-lactate dehydrogenase [2] was “inactive” in each case. The IC50 in assay [3] was 27.7 µM; in assay [4] it was 26600 nM. With `O=C(O)c1csc(-n2nc(-c3cccc(OC(F)(F)F)c3)cc2O)n1`, the inhibition result on L-lactate dehydrogenase [1] and at L-lactate dehydrogenase [2] was “inactive” throughout. The IC50 in assay [3] is more than 57 µM; in assay [4] it was 299 nM. On to `O=C(O)c1csc(-n2nc(C3CCCCC3)cc2O)n1`, for which the inhibition entry at L-lactate dehydrogenase [1] and on L-lactate dehydrogenase [2] was “inactive” in each case. Further, the figures for the 50% inhibitory concentration (IC50) in assay [3] and in assay [4] were more than 57 µM and 1100 nM, respectively. With `O=C(O)c1csc(-n2nc(-c3cccc(-c4ccccc4)c3)cc2O)n1`, the inhibition result at L-lactate dehydrogenase [1] and on L-lactate dehydrogenase [2] was “inactive” each time. In addition, the results for the IC50 in assay [3] and in assay [4] were more than 57 µM and 266 nM, respectively. As to `O=C(O)c1csc(-n2nc(-c3cccc(Cl)c3)cc2C(F)(F)F)n1`, the inhibition entry on L-lactate dehydrogenase [1] and at L-lactate dehydrogenase [2] was “inactive” in each case. In addition, the concentration for half-maximal inhibition (IC50) in assay [3] was more than 57 µM; in assay [4], more than 57000 nM. For `N#Cc1c(Cc2ccc(S(N)(=O)=O)cc2)c(-c2ccccc2)nn1-c1nc(C(=O)O)cs1`, in assay [3], the IC50 was found to be 0.115 µM. In assay [3], `NS(=O)(=O)c1ccc(Cc2c(-c3ccccc3)nn(-c3nc(C(=O)O)cs3)c2-c2ccccc2)cc1` showed an IC50 of 0.139 µM. Still for that read-out and setting: under `NS(=O)(=O)c1ccc(NCc2cn(-c3nc(C(=O)O)cs3)nc2-c2ccccc2)cc1` stands more than 57 µM; under `NC(=O)c1csc(-n2nc(-c3cccc(-c4ccccc4)c3)c(Cc3ccc(S(N)(=O)=O)cc3)c2O)n1`, 27.7 µM. The same measure, in the same setting: as for `NC(=O)c1ccc(Cc2c(-c3cccc(-c4ccccc4)c3)nn(-c3nc(C(=O)O)cs3)c2O)cc1`, the figure is more than 57 µM; as for `NS(=O)(=O)c1ccc(Cc2cn(-c3nc(C(O)C(F)(F)F)cs3)nc2-c2ccccc2)cc1` (centres undefined), more than 57 µM; as for `CNS(=O)(=O)c1ccc(Cc2c(-c3cccc(-c4ccccc4)c3)nn(-c3nc(C(=O)O)cs3)c2O)cc1`, more than 57 µM. In turn, `NS(=O)(=O)c1ccc(Cc2c(-c3ccccc3)nn(-c3nc(CO)cs3)c2C(F)(F)F)cc1` returned an IC50 in assay [3] of 25.5 µM. Take `NS(=O)(=O)c1cccc(Cc2c(-c3ccc(F)c(F)c3)nn(-c3nc(C(=O)O)cs3)c2O)c1`: in assay [3], the IC50 was more than 57 µM. `NS(=O)(=O)c1ccc(Oc2cn(-c3nc(C(=O)O)cs3)nc2-c2ccccc2)cc1` had a half-inhibitory concentration (IC50) in assay [3] of 0.124 µM. On to `NS(=O)(=O)c1ccc(Cc2c(-c3cccc(-c4ccccc4)c3)nn(-c3nc(-c4nnn[nH]4)cs3)c2O)cc1`, for which the IC50 in assay [3] is more than 57 µM.

`O=C(O)c1ccc(Cc2c(-c3cccc(-c4ccccc4)c3)nn(-c3nc(C(=O)O)cs3)c2O)cc1` gave an IC50 in assay [3] of 33.8 µM. For `NS(=O)(=O)c1ccc(Oc2c(-c3ccccc3)nn(-c3nc(C(=O)O)cs3)c2C2CC2)cc1`, in assay [3], the IC50 turned out to be 0.065 µM.

Molecule `NS(=O)(=O)c1ccc(C(=O)Nc2cn(-c3nc(C(=O)O)cs3)nc2-c2ccccc2)cc1` came in with an IC50 in assay [3] of more than 57 µM.

Consider `NS(=O)(=O)N1CCN(Cc2cn(-c3nc(C(=O)O)cs3)nc2-c2ccccc2)CC1`, for which, in assay [3], the IC50 was 17.3 µM. As to `O=C(O)c1csc(-n2nc(-c3ccc(F)c(F)c3)c(Cc3ccccc3)c2O)n1`, the IC50 in assay [3] was more than 57 µM. The molecule `Cc1c(Cc2ccc(S(N)(=O)=O)cc2)c(-c2ccccc2)nn1-c1nc(C(=O)O)cs1` showed an IC50 in assay [3] of 0.042 µM.
